PubChem BioAssay (NCI)
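Results reflect a 48-hour exposure of cells in 96-well plates to compound at five concentrations. At the GI50, growth is halved. TGI marks complete inhibition of growth.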

What was measured:
Assay in all cases: NCI anticancer screen, dose series, 48 h
ACHN renal = tested on: ACHN renal
HS 578T breast = tested on: HS 578T breast
MDA-MB-231 breast = tested on: MDA-MB-231 breast
MDA-MB-435 = tested on: MDA-MB-435
NCI-H226 lung = tested on: NCI-H226 lung
SF-268 CNS = tested on: SF-268 CNS
SK-MEL-28 melanoma = tested on: SK-MEL-28 melanoma
SK-OV-3 ovarian = tested on: SK-OV-3 ovarian
SR leukemia = tested on: SR leukemia
UACC-62 melanoma = tested on: UACC-62 melanoma

Row | SMILES | GI50 (ACHN renal) | TGI (ACHN renal) | GI50 (HS 578T breast) | TGI (HS 578T breast) | GI50 (MDA-MB-231 breast) | TGI (MDA-MB-231 breast) | GI50 (MDA-MB-435) | TGI (MDA-MB-435) | GI50 (NCI-H226 lung) | TGI (NCI-H226 lung) | GI50 (SF-268 CNS) | TGI (SF-268 CNS) | GI50 (SK-MEL-28 melanoma) | TGI (SK-MEL-28 melanoma) | GI50 (SK-OV-3 ovarian) | TGI (SK-OV-3 ovarian) | GI50 (SR leukemia) | TGI (SR leukemia) | GI50 (UACC-62 melanoma) | TGI (UACC-62 melanoma)
1 | CCSc1ccc([C@@H]2[C@@H](N)C(=O)N2c2cc(OC)c(OC)c(OC)c2)cc1 | 0.071 µM | > 100 µM | 0.18 µM | > 100 µM | 0.376 µM | > 100 µM | 0.0277 µM | 0.102 µM | 79 µM | > 100 µM | 0.0872 µM | > 100 µM | 3.79 µM | > 100 µM | 0.0545 µM | > 100 µM | 0.0449 µM | > 100 µM | 0.0451 µM | > 100 µM
2 | Cc1ccc(-c2cc(-c3ccc(C)cc3)nc(N3CCN(CCNc4ccnc5cc(Cl)ccc45)CC3)n2)cc1 | 6.18 µM | 14.5 µM | 1.41 µM | 4.56 µM | 2.52 µM | 9.19 µM | 1.76 µM | 6.85 µM | 5.13 µM | 18.1 µM | 4.88 µM | 21.9 µM | 1.91 µM | 9.82 µM | 5.49 µM | 14.2 µM | 0.675 µM | > 50 µM | 5.54 µM | 12.6 µM
3 | Clc1ccc2nc(Cl)c3ccccc3c2c1 | 4.04 µM | > 100 µM | 8.21 µM | 72 µM | 7.27 µM | 33.2 µM | 23.6 µM | > 100 µM | 14 µM | > 100 µM | 17.2 µM | > 100 µM | > 100 µM | > 100 µM | 5.17 µM | 21.2 µM | 22 µM | > 100 µM | 44.1 µM | > 100 µM
4 | CCOC(=O)c1ccccc1SC(C[N+](=O)[O-])c1ccccc1 (stereo not given) | 2.02 µM | 4.51 µM | 12.6 µM | 47.1 µM | 9.1 µM | 21.8 µM | 2.91 µM | 11.4 µM | 16.1 µM | 44.5 µM | 6.06 µM | 19.2 µM | 1.91 µM | 3.74 µM | 12.7 µM | 26.5 µM | 2.99 µM | 8.97 µM | 13.3 µM | 27.1 µM
5 | O=C(Cn1c(C(=O)c2ccc(Cl)cc2)nc(-c2ccccc2)c1-c1ccccc1)c1ccc(Cl)cc1 | > 100 µM | > 100 µM | > 100 µM | > 100 µM | > 100 µM | > 100 µM | > 100 µM | > 100 µM | > 100 µM | > 100 µM | > 100 µM | > 100 µM | > 100 µM | > 100 µM | > 100 µM | > 100 µM | > 100 µM | > 100 µM | > 100 µM | > 100 µM
6 | Nc1nc(-c2ccc(Cl)cc2)cc(-c2ccc(Cl)cc2)c1-c1nc2ccccc2o1 | 17.4 µM | 33.2 µM | 23.5 µM | 53.1 µM | 15.8 µM | 31.3 µM | 18.3 µM | 36.1 µM | 19.1 µM | 34.9 µM | 14.5 µM | 34.1 µM | 17.4 µM | 34.3 µM | 22.4 µM | 41 µM | 14.3 µM | 30.5 µM | 18.9 µM | 34.2 µM
7 | O=c1c2c(=NCCN3CCCC3)cc3c(=O)n(CCCN4CCOCC4)c(=O)c4ccc(c(O)n1CCCN1CCOCC1)c2c4-3 | 0.0909 µM | 1.51 µM | 1.18 µM | 5.24 µM | 0.197 µM | 0.919 µM | 0.122 µM | 0.264 µM | 0.155 µM | 0.83 µM | 0.165 µM | 0.751 µM | 0.454 µM | 1.74 µM | 0.381 µM | 2.15 µM | < 0.0201 µM | 5.37 µM | 0.35 µM | 0.966 µM
8 | OCCn1cc(-c2cnc3nnn(Cc4ccc5ncccc5c4)c3n2)cn1 | > 100 µM | > 100 µM | > 100 µM | > 100 µM | > 100 µM | > 100 µM | > 100 µM | > 100 µM | > 100 µM | > 100 µM | > 100 µM | > 100 µM | > 100 µM | > 100 µM | > 100 µM | > 100 µM | > 100 µM | > 100 µM | > 100 µM | > 100 µM
9 | COc1cc(-c2nc(-c3ccc(-c4nc5ccc(F)cc5[nH]4)cc3)no2)cc(OC)c1OC | 3.72 µM | 13.6 µM | 2.27 µM | 7.36 µM | 2.39 µM | 7.66 µM | 2.73 µM | 10.7 µM | 2.72 µM | 10.7 µM | 3.99 µM | 32.4 µM | 3.78 µM | 16 µM | 4.12 µM | 31.4 µM | 2.98 µM | > 100 µM | 2.35 µM | 6.61 µM
